From US12649768B2, “Recombinant expression vector for high expression of brazzein in Saccharomyces cerevisiae and method for mass-production of brazzein using the same” (CHUNG-ANG UNIVERSITY INDUSTRY-ACADEMIC COOPERATION …, priority 2021, dated 2026)
No end group written: not given here.

Key:
[1] = versus 2% sugar solution, cited from earlier work
[2] = Brazzein sweetness activity by ascending taste test with a trained human panel; type: in vivo, humans; details: threshold concentration at which sweetness is first felt, 500 μl samples tasted from low to high concentration
Experimental: Since brazzein is a protein rather than a sugar, it is not possible to measure sweetness using a saccharimeter. Therefore, the activity was measured using a taste test that measures the activity of brazzein by allowing humans to directly taste brazzein. First, brazzein was dissolved in distilled water such that the final concentration was 1.0 mg/mL, samples were prepared by varying the test concentration so as to be 30 to 0.05 ng/mL, a threshold value for feeling the sweetness for the first time was obtained by tasting the sweetness of the solution, […] The specific activity measurement method was performed as follows.
A panel of a total of 20 males and 10 females trained in the sweetness test was configured. Prior to the activity measurement, the subjects were informed of the test date and time in advance to sample the taste in their best conditions, and were prohibited from drinking alcohol on the day before the test and eating food, smoking, and the like immediately before the test. The subjects trained in advance rinsed their mouths with prepared secondary distilled water and obtained the concentration at which the sweetness was first felt while sampling the taste of 500 μl of each sample according to the concentration of each type in the order of low concentration to high concentration. […]

| Substance | sweetness relative to a 2% sugar solution, on a molar basis ([1]; molar basis) | sweetness relative to a 2% sugar solution, on a molecular weight basis ([1]; molecular weight basis) | sweetness activity relative to the same mass of sucrose [2] |
| --- | --- | --- | --- |
| Brazzein: natural sweet protein of 54 amino acid residues, 6.5 kDa, from the fruit of Pentadiplandra brazzeana Baillon (QDKCKKVYENYPVSKCQLANQCNYDCKLDKHARSGECFYDEKRNLQCICDYCEY; UniProt P56552 1-54, looked up) | ~9500 fold | about 2000 fold |  |
| K. lactis wild-type brazzein: wild-type brazzein expressed in K. lactis, used as the sweetness comparison (QDKCKKVYENYPVSKCQLANQCNYDCKLDKHARSGECFYDEKRNLQCICDYCEY; ends and bridges not checked; cysteine pairing not given here; UniProt P56552 1-54, looked up) [reference compound] |  |  | 2,309 (±6.8%) fold |
| S. cerevisiae wild-type brazzein: wild-type brazzein (SEQ ID NO: 3) secreted and expressed in Saccharomyces cerevisiae with the pESC-Brazzein vector (DKCKKVYENYPVSKCQLANQCNYDCKLDKHARSGECFYDEKRNLQCICDYCEY) |  |  | about 2,260 (±5.9%) fold |
